This passage reports inhibition results from publication PMC6934184, “Selective DNA-PKcs inhibition extends the therapeutic index of localized radiotherapy and chemotherapy” (The Journal of Clinical Investigation, 2019).

This experiment deals with T1, ULK2 (Homo sapiens, UniProt Q8IYT8).
T1 construct: purchased Thermo Fisher Scientific (Life Technologies) SelectScreen
In words: SelectScreen LanthaScreen. The note with it: read-out: % displacement. Type of experiment: binding. The method, boiled down:
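Percent values come from Thermo SelectScreen profiling of NU5455, combining activity and binding assays. CSF1R was run in Z'LYTE format at Km app ATP, and CAMK1 in Adapta format with ATP listed at 10.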
(In general: Time-resolved FRET reads energy transfer from a long-lived donor to a nearby acceptor.)

T1 sequence (Q8IYT8 whole entry): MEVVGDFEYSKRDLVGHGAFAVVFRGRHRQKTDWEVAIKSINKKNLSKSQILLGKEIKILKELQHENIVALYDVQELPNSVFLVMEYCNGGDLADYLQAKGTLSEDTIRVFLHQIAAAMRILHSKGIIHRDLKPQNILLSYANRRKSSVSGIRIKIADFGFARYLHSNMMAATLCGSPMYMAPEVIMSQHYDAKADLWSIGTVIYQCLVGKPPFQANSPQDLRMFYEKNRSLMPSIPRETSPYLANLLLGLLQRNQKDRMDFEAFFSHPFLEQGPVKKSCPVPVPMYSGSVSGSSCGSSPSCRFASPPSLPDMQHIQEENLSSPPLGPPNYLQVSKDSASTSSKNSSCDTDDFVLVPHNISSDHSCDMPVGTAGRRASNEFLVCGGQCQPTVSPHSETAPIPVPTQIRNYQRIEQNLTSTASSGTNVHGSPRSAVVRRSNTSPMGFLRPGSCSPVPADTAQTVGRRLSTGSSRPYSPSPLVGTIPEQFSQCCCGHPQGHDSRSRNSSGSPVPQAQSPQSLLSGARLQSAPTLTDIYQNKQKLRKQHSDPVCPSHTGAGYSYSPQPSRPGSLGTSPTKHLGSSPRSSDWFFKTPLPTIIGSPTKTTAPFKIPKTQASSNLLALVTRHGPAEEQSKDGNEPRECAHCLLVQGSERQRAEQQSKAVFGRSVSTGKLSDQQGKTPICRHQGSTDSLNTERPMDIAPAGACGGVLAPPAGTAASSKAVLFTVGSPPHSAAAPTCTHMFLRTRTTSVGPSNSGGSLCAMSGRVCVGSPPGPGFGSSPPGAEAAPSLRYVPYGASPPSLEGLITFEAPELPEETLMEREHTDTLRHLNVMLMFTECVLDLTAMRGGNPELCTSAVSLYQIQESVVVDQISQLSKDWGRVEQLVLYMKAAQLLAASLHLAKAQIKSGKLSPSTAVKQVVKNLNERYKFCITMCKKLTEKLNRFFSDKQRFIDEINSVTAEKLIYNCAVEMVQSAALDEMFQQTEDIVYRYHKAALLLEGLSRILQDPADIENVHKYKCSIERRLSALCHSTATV

`CN(C(=O)CN1CCOCC1)c1ccc2sc3c(-c4cccc5c(=O)cc(N6CC7CCC(C6)O7)oc45)cccc3c2c1` [NU5455]: the inhibition at 1 µM was 0.9%.
